Source: ChEMBL document CHEMBL1149010, “A comparative study on anti-inflammatory activities of the enantiomers, shikonin and alkannin” (1986)

What was measured:
Assay type in all cases: functional
Rattus norvegicus [1] = assay: Antiinflammatory activity against thermal injury-induced edema in Wistar rat skin assessed as inhibition of edema at 50 ug treated topically relative to control; set-up: scale not given: the % may be the effect or the level left
Rattus norvegicus [2] = assay: Antiinflammatory activity against thermal injury-induced edema in Wistar rat skin assessed as inhibition of edema at 100 ug treated topically relative to control; set-up: scale not given: the % may be the effect or the level left
Rattus norvegicus [3] = assay: Decrease in histamine-induced capillary permeability in Wistar rat assessed as inhibition of pontamine sky blue 6BX dye leakage at 100 ug treated topically relative to control
Rattus norvegicus [4] = assay: Decrease in histamine-induced capillary permeability in Wistar rat assessed as inhibition of pontamine sky blue 6BX dye leakage at 50 ug treated topically relative to control

With `CCCCC1C(=O)N(c2ccccc2)N(c2ccccc2)C1=O` [PHENYLBUTAZONE] the Activity (Rattus norvegicus [1]) was 38.9%.

In the case of `CC(C)=CC[C@H](O)C1=CC(=O)c2c(O)ccc(O)c2C1=O` [ALKANNIN], the Activity (Rattus norvegicus [2]) is reported as 21.7%, the “inhibition (INH)” value (Rattus norvegicus [3]) is reported as 21.3% and the Activity (Rattus norvegicus [1]) is reported as 21.3%. The “inhibition (INH)” value (Rattus norvegicus [4]) was 7.9%.

Work on `CC(C)=CC[C@@H](O)C1=CC(=O)c2c(O)ccc(O)c2C1=O` (stereo in doubt; form 2) [SHIKONIN] yielded an Activity (Rattus norvegicus [2]) of 23.2% and an Activity (Rattus norvegicus [1]) of 26.7%.

In the case of `CC(C)=CC[C@@H](O)C1=CC(=O)c2c(O)ccc(O)c2C1=O` (stereo in doubt; form 1) [SHIKONIN], the Activity (Rattus norvegicus [2]) is reported as 20.6%, the “inhibition (INH)” value (Rattus norvegicus [3]) is reported as 22.3% and the Activity (Rattus norvegicus [1]) is reported as 22%. For the same compound, the “inhibition (INH)” value (Rattus norvegicus [4]) was 13.7%.
